Key:
[1] = test system: TNF-α release from whole blood cultures stimulated with LPS; assay: IC50 by TNF alpha production upon stimulation of whole blood cultures with LPS; format: cell-based; details: human whole blood (buffy coat) culture, 100 ng/ml LPS, 4 hours; read-out: h TNFα IC50
Procedure, shortened: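 Human buffy coat, diluted with 7 volumes of RPMI/2.5% heat-inactivated FBS, was preincubated with compound (8-point 1:3 series) for 1 h at 37 °C. It was then stimulated with 100 ng/ml LPS (final) for 4 h. Supernatant TNF-α was measured by sandwich ELISA at 450 nm, and IC50 was set between DMSO (0%) and PDE4-inhibitor (100%) controls.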

[2] = molecular target: T1, PDE4D5: full-length human PDE4D5 isozyme (Homo sapiens, UniProt Q08499); assay: PDE4 IC50 determination by Scintillation Proximity Assay (SPA), full-length PDE4D5; format: biochemical; details: cell lysate, [3H]cAMP SPA
T1 construct: made in house; host or cells: baculovirus infected insect cells (pFastBacHT)
Procedure, shortened: (§1)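 Unpurified enzyme from cell lysates (PDE4B2 2.5 μl, PDE4D5 0.083 μl of 50% glycerol stock/ml) hydrolysing [3H]cAMP in 50 mM Tris pH 7.5, 8.3 mM MgCl, 1.7 mM EGTA, 0.01% BSA, 30 min at 30 °C. Stopped with yttrium silicate SPA beads in 18 mM ZnSO4; bead-bound [3H]AMP counted. IC50 by non-linear regression.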

[3] = molecular target: T2, PDE4B2: full-length human PDE4B2 isozyme (Homo sapiens, UniProt Q07343); assay: PDE4 IC50 determination by Scintillation Proximity Assay (SPA), full-length PDE4B2; format: biochemical; details: cell lysate, [3H]cAMP SPA
T2 construct: made in house; host or cells: baculovirus infected insect cells (pFastBacHT)
Procedure, shortened: as §1

[4] = test system: TNFα levels in serum of LPS-challenged rats; assay: Rat inhibition studies: serum TNFα after iv LPS challenge; format: in vivo; details: LPS 0.1 mg/kg iv 2 h after dosing, percent decrease in serum TNFα versus vehicle, read-out: % inhibition r TNFα; for inhibition in vivo at 5 mg/kg: 5 mg/kg po
Description: All studies were done with male rats CD (SD) IGS BR (Crl) (Charles River, France), which were grouped in to 5 animal groups.
At the end of the acclimatization period, the non-fasted rats were weighed, individually identified on the tail with a permanent marker and administered by oral (po) or interperitoneal (ip) route with either vehicle, reference or test compound in a volume of 10 mL/kg adapted to the body weight. The animals were gathered in groups of 5 animals in a polystyrene labeled cage with sawdust covered floors. 2-hours after vehicle, reference or test substance administration, rats received an intravenous (iv) injection of 0.1 mg/kg LPS in a volume of 1 mL/kg of body weight. 2 h after LPS challenge (or as indicated in Tables 3B and 4B), blood samples were collected into tubes without anticoagulant by retro-orbital puncture under gas (isoflurane) anesthesia. Samples were allowed to clot at room temperature for 5 to 10 min then put on ice until there were prepared by centrifugation (6000×g for 3 min at 4° C.) and stored at −20° C. until use. TNFα levels were measured in serum samples in duplicate by ELISA technique according to the manufacturer's procedure (Rat TNFα kit Quantikine M (RTA00, R&D System, France)). Data are reported as percent decrease in observed TNFα levels versus TNFα levels observed for vehicle dosed animal groups.

[5] = molecular target: T3, PDE4B: catalytic domain of human PDE4B from S152-S528 (Homo sapiens, UniProt Q07343); assay: PDE4 IC50 determination by Scintillation Proximity Assay (SPA), PDE4B catalytic domain; format: biochemical; details: [3H]cAMP SPA, 30 min at 30° C.
T3 construct: The catalytic domain of human PDE4B from S152-S528; His6 (N, cleaved yes); thrombin cleavage site (N, cleaved yes); made in house; host or cells: E. coli BL21 (DE3) RIL
Procedure, shortened: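 Human PDE4B catalytic domain (80 ng/ml) hydrolysed [3H]cAMP in 50 mM Tris pH 7.5, 8.3 mM MgCl, 1.7 mM EGTA, 0.01% BSA for 30 min at 30 °C. Reaction was stopped with yttrium silicate SPA beads in 18 mM ZnSO4, and bound [3H]AMP was counted by scintillation. IC50 came from non-linear regression.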

T1 sequence (Q08499 with tags, fused parts or gaps isoform Q08499-6): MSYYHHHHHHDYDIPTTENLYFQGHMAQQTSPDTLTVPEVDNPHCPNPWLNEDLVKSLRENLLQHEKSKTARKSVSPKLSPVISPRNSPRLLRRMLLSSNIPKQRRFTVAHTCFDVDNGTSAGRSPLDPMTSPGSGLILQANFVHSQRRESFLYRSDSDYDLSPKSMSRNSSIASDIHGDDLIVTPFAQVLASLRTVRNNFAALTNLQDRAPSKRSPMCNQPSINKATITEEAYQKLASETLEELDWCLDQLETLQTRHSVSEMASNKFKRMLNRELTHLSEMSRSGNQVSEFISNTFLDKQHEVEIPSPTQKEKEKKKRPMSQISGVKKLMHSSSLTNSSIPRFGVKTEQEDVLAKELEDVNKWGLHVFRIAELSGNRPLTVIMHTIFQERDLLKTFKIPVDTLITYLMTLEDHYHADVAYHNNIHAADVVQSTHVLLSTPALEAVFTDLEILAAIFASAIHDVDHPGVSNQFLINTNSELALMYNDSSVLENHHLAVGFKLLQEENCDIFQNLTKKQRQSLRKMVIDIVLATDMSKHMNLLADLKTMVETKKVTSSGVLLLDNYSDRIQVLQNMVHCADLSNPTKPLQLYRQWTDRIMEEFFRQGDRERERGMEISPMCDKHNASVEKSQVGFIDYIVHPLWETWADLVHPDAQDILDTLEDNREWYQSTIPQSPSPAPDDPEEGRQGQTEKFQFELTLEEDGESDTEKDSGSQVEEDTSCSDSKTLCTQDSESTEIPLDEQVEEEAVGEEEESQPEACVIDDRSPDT
T2 sequence (Q07343 with tags, fused parts or gaps isoform Q07343-2): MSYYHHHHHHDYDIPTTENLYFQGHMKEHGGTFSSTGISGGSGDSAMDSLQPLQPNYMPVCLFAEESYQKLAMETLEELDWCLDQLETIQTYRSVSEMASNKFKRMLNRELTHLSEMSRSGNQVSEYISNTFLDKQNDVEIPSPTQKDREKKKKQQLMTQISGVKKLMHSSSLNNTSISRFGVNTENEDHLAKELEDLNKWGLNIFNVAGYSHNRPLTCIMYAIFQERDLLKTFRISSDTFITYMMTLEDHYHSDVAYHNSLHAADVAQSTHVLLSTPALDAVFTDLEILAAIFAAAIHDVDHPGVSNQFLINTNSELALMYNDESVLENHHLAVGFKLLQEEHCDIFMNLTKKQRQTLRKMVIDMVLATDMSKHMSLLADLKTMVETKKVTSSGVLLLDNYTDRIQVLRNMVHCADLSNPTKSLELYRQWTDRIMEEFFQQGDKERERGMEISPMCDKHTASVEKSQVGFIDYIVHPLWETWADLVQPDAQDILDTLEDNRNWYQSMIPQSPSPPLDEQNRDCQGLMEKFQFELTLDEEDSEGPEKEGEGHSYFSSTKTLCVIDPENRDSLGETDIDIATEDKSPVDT
T3 sequence (Q07343 324-700): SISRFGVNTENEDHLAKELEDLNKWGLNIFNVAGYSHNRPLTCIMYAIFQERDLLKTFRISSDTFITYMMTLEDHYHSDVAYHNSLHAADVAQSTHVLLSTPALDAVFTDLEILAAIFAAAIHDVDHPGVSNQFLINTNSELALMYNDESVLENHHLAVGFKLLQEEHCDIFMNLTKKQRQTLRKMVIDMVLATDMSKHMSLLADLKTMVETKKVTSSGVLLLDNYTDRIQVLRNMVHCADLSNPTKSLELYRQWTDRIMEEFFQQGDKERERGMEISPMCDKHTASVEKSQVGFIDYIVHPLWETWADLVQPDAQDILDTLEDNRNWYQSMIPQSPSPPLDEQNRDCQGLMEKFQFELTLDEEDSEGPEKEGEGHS

COc1ccc(-c2ccnc3c2ccn3S(=O)(=O)c2cccc3cccnc23)cc1OC [Compound 126, 8-[4-(3,4-Dimethoxy-phenyl)-pyrrolo[2,3-b]pyridine-1-sulfonyl]-quinoline]
IC50 [1]: ≤ 10 µM | IC50 [2]: < 10 µM | IC50 [3]: < 10 µM | inhibition in vivo at 5 mg/kg [4]: ≥ 20% | IC50 [5]: < 10 µM

COc1ccc(-c2cn(C(=O)c3c(OCC(F)(F)F)ccc4ccccc34)c3ncccc23)cc1OC [Compound 112, [3-(3,4-Dimethoxy-phenyl)-pyrrolo[2,3-b]pyridin-1-yl]-[2-(2,2,2-trifluoro-ethoxy)-naphthalen-1-yl]-methanone]
IC50 [2]: < 10 µM | IC50 [3]: < 10 µM | inhibition in vivo at 3 mg/kg ([4]; 3 mg/kg po): ≥ 20%

CCOc1ccccc1C(=O)n1ccc2cc(-c3ccc(OC)c(OC)c3)cnc21 [Compound 83, [5-(3,4-Dimethoxy-phenyl)-pyrrolo[2,3-b]pyridin-1-yl]-(2-ethoxy-phenyl)-methanone]
IC50 [1]: ≤ 10 µM | IC50 [2]: < 10 µM | IC50 [3]: < 10 µM | inhibition in vivo at 5 mg/kg [4]: ≥ 20% | IC50 [5]: < 10 µM

COc1ccc(-c2cn(S(=O)(=O)c3cccc4cccnc34)c3ncccc23)cc1OC [Compound 7, 8-[3-(3,4-dimethoxy-phenyl)-pyrrolo[2,3-b]pyridine-1-sulfonyl]-quinoline]
IC50 [1]: ≤ 10 µM | IC50 [2]: < 10 µM | IC50 [3]: < 10 µM | inhibition in vivo at 50 mg/kg ([4]; 50 mg/kg po or ip): ≥ 20% | IC50 [5]: < 10 µM

COc1ccc(-c2cn(C(=O)c3ccccc3OC(C)=O)c3ncccc23)cc1OC [Compound 110, Acetic acid 2-[3-(3,4-dimethoxy-phenyl)-pyrrolo[2,3-b]pyridine-1-carbonyl]-phenyl ester]
IC50 [1]: ≤ 10 µM | IC50 [2]: < 10 µM | IC50 [3]: < 10 µM | inhibition in vivo at 5 mg/kg [4]: ≥ 20% | IC50 [5]: < 10 µM

CCOc1ccc2ccccc2c1C(=O)n1ccc2c(-c3ccc(OC)c(OC)c3)ccnc21 [Compound 48, [4-(3,4-Dimethoxy-phenyl)-pyrrolo[2,3-b]pyridin-1-yl]-(2-ethoxy-naphthalen-1-yl)-methanone]
IC50 [1]: ≤ 10 µM | IC50 [2]: < 10 µM | IC50 [3]: < 10 µM | inhibition in vivo at 5 mg/kg [4]: ≥ 20% | IC50 [5]: < 10 µM

Reference: US7605168B2 (Plexxikon, Inc., priority 2004, dated 2009)
